Experiments:
Format in all cases: cell-based, human
LXFL529 = test: Colony outgrowth assay, patient-derived tumour xenograft cells; parameters: key: S: BAL27862-sensitive tumour cells have IC70 values in the low nanomolar range; R: BAL27862-resistant tumour cells are defined by IC70 values >600 nanomolar; conditions: Lung
Protocol: Single cell suspensions of patient-derived tumour xenografts (maintained in nude mice) were prepared. For colony outgrowth assays, cells were plated in soft agar in 24-well plates according to the assay introduced by Hamburger & Salmon (Primary bioassay of human tumour stem cells, Science, 1977, 197:461-463). 2.0E+04-6.0E+04 cells in 0.2 mL medium containing 0.4% agar were plated out on a bottom layer of 0.75% agar. Test compounds were applied in 0.2 mL culture medium. Every 24-well plate contained untreated controls and samples in triplicates. Cultures were incubated at 37° C. and 7.5% CO2 for 5-28 days. 24 hours prior to analysis, vital colonies were stained with a solution of metabolizable tetrazolium salt (Alley M C et al, Life Sci. 1982, 31:3071-3078) and were counted with an automatic image analysis system (Omnicon 3600, Biosys GmbH).
Relative drug effects were expressed by the ratio of the mean number of colonies in the treated wells and the control wells. IC70-values were determined by plotting compound concentrations versus relative colony counts.

HeLa cells [1] = test: Crystal Violet assay of siRNA-treated cells; conditions: 48 hours
Protocol: (§1) For siRNA experiments to assess effects on BUBR1 expression levels by immunoblotting and effects on tumour cell proliferation and viability using the YO-PRO assay (FIGS. 7, 9,10 and 11), and Crystal Violet Assay (FIGS. 12 and 13), cells were seeded in 6 well plates at an appropriate density: HeLa (cervical cancer cells; ATCC reference CCL-2) 2.5E+04 (for YO-PRO) or 4.0E+04 (for Crystal Violet) cells per well, H460 (NSCLC cells; ATCC reference HTB-177) 5.0E+04 cells per well, MCF-7 (breast carcinoma cells; ATCC reference HTB-22) 2.4E+05 cells per well, Panc1 (pancreatic cancer cells, ATCC reference CRL-1469) and HCT116 (colon cancer cells, ATCC reference CCI-247) 8E+04 cells per well, and were cultured at 37° C. and 5% CO2 in RPMI-1640 or DMEM containing 10% FCS (complete medium). Cells were transfected the following day with a mixture of four BUBR1 siRNAs (ON-Target-plus Smartpool L-004101, Dharmacon, see sequence information below), the four individual BUBR1 siRNAs (ON-Target-plus Set of four upgrade LU-004101) or non-targeting control siRNAs (ON-Target-plus non-targeting pool D001810, Dharmacon), using Hiperfect (Qiagen) for H460, Panc1 and HCT116 or Lipofectamine2000 (Invitrogen) for HeLa and MCF-7 according to manufacturer's instructions. The final concentration of siRNA was 10 nM (H460) or 20-30 nM (HeLa) or 20 nM (MCF-7, Panc1, HCT116). Cells were maintained at 37° C. and 5% CO2 for 24 hours before compound treatment for 48 hours, followed by YO-PRO analysis, Crystal Violet Assay or extraction for immunoblot assay. ON-Target-plus siRNAs are dual-strand siRNAs, chemically modified to improve specificity for the desired target.
(§2) Cells were incubated for 48 hours with DMSO or BAL27862 diluted in complete medium (final concentration DMSO 0.5%). After medium was removed, cells were fixed and stained by adding 1 ml Crystal Violet Staining (0.2% Crystal Violet in 50% Methanol) per well. Plates were incubated for 1 hour at room temperature. Subsequently the stain was decanted and plates were washed 4 times with double-distilled water. Plates were air-dried for several hours. Stain was dissolved by adding 2 ml buffer (0.1 M Tris pH 7.5, 0.2% SDS, 20% Ethanol) per well and shaking the plates. Absorbance at 590 nm was measured using a SpectraMax M2^e plate reader (Molecular Devices). In order to subtract starting cell numbers, a control plate was fixed and stained on the same day the compound was added. Final results were calculated by subtracting the starting cell absorbance from that of control (DMSO) or compound treated cells. Values lower than zero indicate cell death.

Panc1 cells = test: Crystal Violet assay of siRNA-treated cells; conditions: BUBR1 siRNA pool, 30 nM, 48 hours
Protocol: as §1, §2

HCT116 cells = test: Crystal Violet assay of siRNA-treated cells; conditions: BUBR1 siRNA pool, 50 nM, 48 hours
Protocol: as §1, §2

HeLa cells [2] = test: YO-PRO assay of siRNA-treated cells; conditions: BUBR1 siRNA pool, 48 hours treatment
Protocol: For siRNA experiments to assess effects on BUBR1 expression levels by immunoblotting and effects on tumour cell proliferation and viability using the YO-PRO assay (FIGS. 7, 9,10 and 11), and Crystal Violet Assay (FIGS. 12 and 13), cells were seeded in 6 well plates at an appropriate density: HeLa (cervical cancer cells; ATCC reference CCL-2) 2.5E+04 (for YO-PRO) or 4.0E+04 (for Crystal Violet) cells per well, H460 (NSCLC cells; ATCC reference HTB-177) 5.0E+04 cells per well, MCF-7 (breast carcinoma cells; ATCC reference HTB-22) 2.4E+05 cells per well, Panc1 (pancreatic cancer cells, ATCC reference CRL-1469) and HCT116 (colon cancer cells, ATCC reference CCI-247) 8E+04 cells per well, and were cultured at 37° C. and 5% CO2 in RPMI-1640 or DMEM containing 10% FCS (complete medium). […]
12.5 μl YO-PRO®-1 iodide (491/509)(Invitrogen/Molecular Probes, # Y-3603; 1 mM in DMSO) were added to 1 ml 5-times concentrated YO-PRO buffer (100 mM Na-citrate, pH 4.0; 134 mM NaCl) to produce the YO-PRO Mix. […] The uptake of YO-PRO dye into cells was assessed by using a SpectraMax M2^e plate reader (Molecular Devices) using 485 nm excitation and 538 nm emission at a cutoff of 530 nm. […] Fluorescent read-out was performed in a SpectraMax M2^e plate reader (Molecular Devices) using 485 nm excitation and 538 nm emission at a cut off of 530 nm. […]

N#CCCNc1nonc1-c1nc2ccccc2n1CC(=O)c1ccc(N)cc1 [BAL27862, 3-(4-{1-[2-(4-Amino-phenyl)-2-oxo-ethyl]-1H-benzoimidazol-2-yl}-furazan-3-ylamino)-propionitrile]
Sensitive (S)/Resistant (R), by IC70 in colony outgrowth (LXFL529): S | cellular proliferation with reduced BUBR1 expression (HeLa cells [1]; BUBR1 siRNA pool, 50 nM): same effects were again observed | effect on cellular proliferation after individual BUBR1 siRNAs (HeLa cells [1]; siRNA #1-4, 50 nM): decreased the effect of BAL27862 on cellular proliferation | cellular proliferation with reduced BUBR1 expression (Panc1 cells): same effects were again observed | cellular proliferation with reduced BUBR1 expression (HCT116 cells): same effects were again observed | antiproliferative effect with reduced BUBR1 expression (HeLa cells [2]): dramatically reduced | tumour cell death with reduced BUBR1 expression (HeLa cells [2]): no increase in tumour cell death observed
